According to patent publication US5134156A, “Pharmaceutical composition and method for angiogenesis inhibition” (Zaidan Hojin Biseibutsu Kagaku Kai, priority 1989, dated 1992):

Columns and labels:
[1] = test system: angiogenesis in chorio-allantoic membrane (CAM) of the chicken embryo; test: Inhibition of angiogenesis in chorio-allantoic membrane (CAM) of the chicken embryo in the incubated chicken egg; assay type: in vivo; conditions: for Degree of Inhibition I: number of CAM / Degree of Inhibition II: number of CAM / Degree of Inhibition III: number of CAM / Degree of Inhibition 0: number of CAM: n = 5 tested CAM, 2 days incubation; for Degree of Inhibition I: number of CAM: I-degree: avascular area 2 mm to 4 mm in diameter; for Degree of Inhibition II: number of CAM: II-degree: avascular area 4 mm to 6 mm in diameter; for Degree of Inhibition III: number of CAM: III-degree: avascular area greater than 6 mm in diameter; for Degree of Inhibition 0: number of CAM: zero-degree: avascular area less than 2 mm in diameter
Description: (§1) Fertilized chicken eggs were incubated for 4 days, and one hole was then bored by a gimlet at the top of the air chamber of the incubated eggs and another hole was bored at the lower lateral part of the egg. The white of egg (about 2 ml) was removed by suction at the lower hole of the egg. The air within the air chamber was sucked off through the hole bored at the top of the air chamber of the egg so that the eggshell membrane was released from the chorio-allantoic membrane (CAM) of the chicken embryo. The hole at the lower lateral part of the egg was then sealed. A part of the eggshell was then cut off from the top of the air chamber of the egg and a silicone ring having an inner diameter of 3 mm was placed directly on the chorio-allantoic membrane (having a diameter of 1 to 3 mm) in each egg, followed by pouring a solution (10 μl) containing a predetermined amount of actinonin and 1% methylcellulose in physiological saline into the silicone ring. The top of the air chamber of the egg was covered by a cap and the eggs were then further incubated for 2 days in an incubator. After this further incubation for 2 days, intralipid was injected into the CAM and the CAM so treated was photographed for estimation of the development of blood vessels.
Degree of inhibition to the angiogenesis was evaluated in term of the following four scales of zero degree to III-degree, according to the method of Crum et al (see Crum R., Szabo S., and Folkman J.; A new class of steroid inhibits angiogenesis in the presence of heparin or a heparin fragment in the "Science" 230, pp. 1375-1378 (1985)). Thus, the degree of inhibition to angiogenesis were estimated as follows:
Zero-degree . . . The avasuclar area where the blood vessels were not developed has a size of less than 2 mm in its diameter.
I-degree . . . The avascular area has a size of from 2 mm to 4 mm in its diameter.
II-degree . . . The avascular area has a size of from 4 mm to 6 mm in its diameter.
III-degree . . . The avascular area has a size of greater than 6 mm in its diameter.
In Table 1 below, there are shown the estimated degrees of the angiogenesis-inhibiting activity of actinonin at a dose of 10 to 100 μg per CAM.

[2] = test system: chorio-allantoic membrane; test: Development/formation of chorio-allantoic membrane in the incubated chicken egg; assay type: in vivo
Description: as §1

chicken embryo = test: Growth of the chicken embryo, visually observed; assay type: in vivo; conditions: 500 μg to 10 μg per CAM
Description: as §1

mice = test: Acute toxicity tests in mice by intravenous injection; assay type: in vivo; conditions: 400 mg/kg
[3] = test system: angiogenesis in chorio-allantoic membrane (CAM) of the chicken embryo; test: Inhibition of angiogenesis in chorio-allantoic membrane (CAM) of the chicken embryo in the incubated chicken egg; assay type: in vivo; conditions: 500 μg to 10 μg per CAM
aminopeptidase M = conditions: known from the literature; cited from earlier work
[4] = Kokai No. 15840/86 and U.S. Pat. No. 4,663,342; cited from earlier work
[5] = Kokai No. 4228/87; cited from earlier work
[6] = I.A.M. Symposia on Microbiology, No. 6 and U.S. Pat. No. 3,240,787; cited from earlier work

In the case of CCCCC[C@H](CC(=O)NO)C(=O)N[C@H](C(=O)N1CCC[C@H]1CO)C(C)C [actinonin], the “Activity inhibitory to the angiogenesis in CAM” value ([1]; 10 μg/CAM) is reported as “shows a high activity inhibitory to the angiogenesis in CAM”, the “Degree of Inhibition I: number of CAM” value ([1]; 10 μg/CAM) is reported as 2 and the “Degree of Inhibition II: number of CAM” value ([1]; 10 μg/CAM) is reported as 1. For the same molecule, the “Degree of Inhibition III: number of CAM” value ([1]; 10 μg/CAM) was 1, the “Degree of Inhibition 0: number of CAM” value ([1]; 10 μg/CAM) was 1 and the “Degree of Inhibition I: number of CAM” value ([1]; 50 μg/CAM) was 1. The “Degree of Inhibition II: number of CAM” value ([1]; 50 μg/CAM) was 2, the “Degree of Inhibition III: number of CAM” value ([1]; 50 μg/CAM) was 1 and the “Degree of Inhibition 0: number of CAM” value ([1]; 50 μg/CAM) was 1. For the same molecule, the “Degree of Inhibition I: number of CAM” value ([1]; 100 μg/CAM) was 1, the “Degree of Inhibition II: number of CAM” value ([1]; 100 μg/CAM) was 1 and the “Degree of Inhibition III: number of CAM” value ([1]; 100 μg/CAM) was 1. The “Degree of Inhibition 0: number of CAM” value ([1]; 100 μg/CAM) was 2, the Angiogenesis-inhibiting activity ([1]; doses of 10 to 100 μg per CAM) was “shows an angiogenesis-inhibiting activity” and the “Inhibition to the development of chorio-allantoic membrane” value ([2]; 500 μg to 10 μg per CAM, compared to untreated membranes) was “chorio-allantoic membranes of smaller dimensions as compared to those of the untreated membranes”. The “Inhibition of the formation of chorio-allantoic membrane” value ([2]; conclusion from the CAM test) was “without inhibiting the formation of chorio-allantoic membrane”, the “Growth of the chicken embryo as a whole” value (chicken embryo) was “it was not found that the growth of the chicken embryo as a whole can be inhibited” and the “Deaths in acute toxicity tests” value (mice) was “no deaths”. The “Inhibition of angiogenesis in the chorio-allantoic membrane” value [3] was “can inhibit the angiogenesis”, the “Activity inhibitory to aminopeptidase M” value (aminopeptidase M) was “exhibits an activity inhibitory to aminopeptidase M” and the Immunopotentiating effect [4] was “effective as an immunopotentiating agent”. For the same molecule, the Analgesic effect [5] was “effective as an analgesic agent” and the Antibacterial activity [6] was “antibacterially active”.
